# Measurements taken from patent EP4194000A1, “CISTUS MONSPELIENSIS EXTRACT AND COMPOSITIONS COMPRISING SAME FOR SKIN SOOTHING” (Pierre Fabre Dermo-Cosmétique, priority 2021, dated 2023).
# Ends that are not written are not given here.
# How the values were obtained:
# Assay type in all cases: cell-based, humains
# [1] = test system: IL-17; experiment: IL-17 release by isolated, amplified Th17 lymphocytes stimulated with anti-CD3/anti-CD28 beads (ELISA)
# Description: (§1) Le but de cette étude est d'évaluer l'activité potentielle d'un extrait de Cistus monspeliensis selon l'invention pour moduler la production de cytokines impliquées dans le psoriasis et la dermatite atopique. Pour se faire, des lymphocytes Th17 isolés et amplifiés à partir du sang circulant de donneurs sont utilisés comme modèle in vitro d'immunopathogénèse du psoriasis. […]
# (§2) Les lymphocytes T sont triés à partir de cellules sanguines récupérées de poches de sang fournies par l'Etablissement Français du sang, pour obtenir le phénotype suivant : CD4+ CD45RA- CXCR3- CCR6+. Le nombre de lymphocytes Th17 ainsi obtenu est augmenté par une mise en culture de ces cellules en présence d'un mélange de cytokines (IL-2, anti-TNFα et anti-INFγ) pendant deux semaines.
# (§3) Le test est réalisé sur des lymphocytes Th17 humains isolés et amplifiés en absence (conditions contrôle) ou en présence (traité) des composés à tester et sont stimulés ou non par les facteurs de stimulation anti-CD3/anti-CD28.
# (§4) Les teneurs des cytokines pro-inflammatoires de Th17 (IL-17 et IL-22) sont quantifiées 24h après la stimulation.
# (§5) Les lymphocytes sont traités avec les composés à tester 30 minutes avant la stimulation et pendant 24 heures.
# (§6) La Nicardipine, bloqueur des canaux calciques non-sélectifs a été testée (10 µg/ml), solubilisée également dans le DMSO, est utilisée comme contrôle positif. […]
# [2] = test system: IL-22; experiment: IL-22 release by isolated, amplified Th17 lymphocytes stimulated with anti-CD3/anti-CD28 beads (ELISA)
# Description: as §1, §2, §3, §4, §5, §6
# [3] = target: T1, PAR-2 (Homo sapiens, UniProt P55085); experiment: Aequorin test, agonist activity on recombinant PAR-2; settings: reference agonist for PAR-2; read-out: CE50 (the source's name)
# T1 construct: expressed in transfected cells; host or cells: CHO-K1 mt aequorin (parental line named; inferred to be the host of the recombinant cells)
# T1 sequence (P55085 26-397): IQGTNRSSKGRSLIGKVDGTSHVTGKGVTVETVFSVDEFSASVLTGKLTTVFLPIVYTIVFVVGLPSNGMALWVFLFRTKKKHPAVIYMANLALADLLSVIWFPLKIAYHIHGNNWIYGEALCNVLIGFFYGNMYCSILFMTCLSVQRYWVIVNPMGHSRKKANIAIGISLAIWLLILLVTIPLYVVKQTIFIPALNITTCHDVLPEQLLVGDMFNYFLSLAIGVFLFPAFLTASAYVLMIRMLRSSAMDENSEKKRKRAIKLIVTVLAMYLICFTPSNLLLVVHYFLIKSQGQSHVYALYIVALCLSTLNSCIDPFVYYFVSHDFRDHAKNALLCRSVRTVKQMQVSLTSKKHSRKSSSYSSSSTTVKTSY
# Description: Les inventeurs ont évalué les effets d'un extrait de Cistus monspeliensis sur deux cibles étroitement reliées au prurit, PAR-2 et MRGPRX2.
# Les PAR-2 sont des récepteurs couplés aux protéines G. PAR-2 module les réponses inflammatoires, joue un rôle dans l'obésité, le métabolisme et les cancers. PAR-2 agit comme un senseur pour des enzymes protéolytiques générées pendant l'infection. PAR-2 serait retrouvé dans les kératinocytes épidermiques au niveau de la couche stratum granulosum. Des PAR-2 fonctionnels sont également exprimés dans plusieurs types de cellules immunitaires, telles que les éosinophiles, les neutrophiles, les monocytes, les macrophages, les cellules dendritiques, les mastocytes et les cellules T. Le PAR-2 est activé par clivage protéolytique par la tryptase qui est la protéase principale des cellules mastocytaires et la kallikréine qui est impliquée dans des processus inflammatoires et d'homéostasie épidermique. De plus, le clivage protéolytique de PAR-2 induit une signalisation calcique s'il est exprimé dans les neurones participant à la voie afférente. L'activation de MRGPRX2 ([…] G-Protein coupled Receptor) entraine une dégranulation des cellules mastocytaires avec par la suite des réactions pseudo-allergiques. […]
# [4] = test system: substance P; experiment: Substance P release by sensory neurons derived from human pluripotent stem cells, stimulated with veratridine (ELISA)
# Description: Le but de cette étude est d'évaluer les propriétés modulatrices d'un extrait de Cistus monspeliensis dans l'inflammation neurogène cutanée.
# Pour se faire, les inventeurs ont développé une approche expérimentale in vitro. Un modèle original de neurones sensoriels humains a été développé après une reprogrammation cellulaire de cellules souches pluripotentes humaines. Ce modèle permet d'étudier les propriétés inhibitrices de la libération de la substance P par les composés à tester, étudié après la stimulation. Ce neuropeptide, la substance P, étant le principal neuromédiateur impliqué dans les voies de la sensibilisation dans l'inflammation neurogène, la douleur et le prurit.
# L'étape initiale est la reprogrammation de cellules souches pluripotentes humaines par l'utilisation successive de différents cocktails de facteurs de croissance.
# Les caractérisations phénotypiques et morphologiques ont permis de vérifier le pattern des neurones sensoriels avec notamment l'expression des récepteurs spécifiques tels que TrKA, 5HT-2, P2RX3 ou des canaux tels que TRPV1, Nav1.7, Nav1.8, TRPM8 avec une colocalisation avec des marqueurs neuronaux (Tuj1, Brn3A). Ces caractérisations permettent d'établir une durée de reprogrammation pour atteindre un pattern optimal qui est entre J40 et J47 après le début des traitements avec le cocktail des facteurs de croissance.
# L'essai est réalisé sur le modèle de neurones sensoriels en culture dans un mélange de milieu (RPMI/N2/B27/Glutamax) en absence (conditions contrôle) ou en présence (groupes traités) des produits à tester. Ces deux conditions sont testées en présence de Vératridine ou en son absence. […] Les niveaux du neuropeptide qu'est la substance P sont quantifiés dix minutes après l'ajout de Veratridine. […]
# La substance P libérée est mesurée dans les milieux d'incubation du groupe non traité (contrôle) et des groupes traités après ou non la stimulation de Vératridine. Elle est quantifiée par ELISA selon les instructions du fournisseur. […]
# [5] = 10µg/ml, Th17 stimulated anti-CD3/anti-CD28, 24h
compound,measurement,setting,value
COC(=O)C1=C(C)NC(C)=C(C(=O)OCCN(C)Cc2ccccc2)C1c1cccc([N+](=O)[O-])c1 (centres unmarked) [Nicardipine],IL-17 (moyenne),[1]; [5],721 pg/mL
same,inhibition at 10 µg/mL,[1]; Lymphocyte,43%
same,IL-22 (moyenne),[2]; [5],440 pg/mL
same,inhibition at 10 µg/mL,[2]; Lymphocyte,37%
SLIGRL-NH2 [SLIGRL-NH2],EC50,[3],524 nM
COc1ccc(C(=O)O[C@H]2CC[C@@]3(C)[C@@H]4CC[C@H]5[C@]6(O)C[C@H](O)[C@@]7(O)[C@@H](CN8C[C@@H](C)CC[C@H]8[C@@]7(C)O)[C@]6(O)C[C@@]53O[C@]24O)cc1OC [Vératridine],"substance P, Données brutes Moyenne","[4]; Vératridine 3µM alone (stimulus), 10 minutes","96,26 pg/ml"
"CCN(CC)CC(=O)Nc1c(C)cccc1C [Lidocaïne, lidocaïne]","substance P, Données brutes Moyenne","[4]; 100µM, under Vératridine 3µM stimulation","34,76 pg/ml"
same,libération de substance P (result in words),"[4]; 100µM, under Vératridine stimulation",réduit significativement la libération de substance P
